Results reported in patent US20200222474A1, “COMPOSITIONS AND METHODS FOR INCREASING PHYTOCHEMICAL BIOAVAILABLITY AND BIOACTIVITY” (North Carolina State University, priority 2017, published 2020).

System: L. acidophilus NCFM
Experiment: RNA-seq transcriptional analysis of L. acidophilus NCFM growing on plant glycosides
Format: cell-based, Lactobacillus acidophilus
[1] = LBA0329 Putative cell division protein, COG D
[2] = LBA0466 Hypothetical protein, COG C
[3] = LBA0500 MSM operon repressor, COG K
[4] = LBA0545 Hypothetical protein, COG L
[5] = LBA0547 Putative site-specific recombinase, COG L
[6] = LBA0573 Putative transcriptional regulator, COG K
[7] = LBA0607 Putative transcriptional regulator, COG K
[8] = LBA0672 Putative phosphate starvation inducible protein stress related, COG J
[9] = LBA0753 Multi-drug-type permease, COG GEPR
[10] = LBA0886 Sugar kinase-putative transcriptional regulator, COG KG
[11] = LBA0887 Hypothetical protein, COG C
[12] = LBA0897 Putative Cro-like protein, COG K
[13] = LBA0910 L-lactate dehydrogenase, COG C
[14] = LBA1021 Putative transcriptional regulator, COG K
[15] = LBA1220 Pyridine mercuric reductase, COG C
[16] = LBA1392 Mucus binding protein precursor Mub, COG J
[17] = LBA1411 Fumarate reductase flavoprotein subunit, COG CS
[18] = LBA1436 Glycerol uptake facilitator protein, COG G
[19] = LBA1457 Galactose-1-epimerase, COG G
[20] = LBA1458 Galactose-1-phosphate uridylyltransferase, COG G
[21] = LBA1462 Beta-galactosidase, COG G
[22] = LBA1463 Lactose permease, COG G
[23] = LBA1465 Transcription repressor of beta-galactosidasegene, COG K
[24] = LBA1467 Beta-galactosidase large subunit (lactase), COG G
[25] = LBA1468 Beta-galactosidase small subunit, COG G

Structure (SMILES): OCc1ccccc1O[C@@H]1O[C@H](CO)[C@@H](O)[C@H](O)[C@H]1O [Salicin]
- Log2 differential normalized TPM ratio compared to glucose (LBA0016 Fructokinase, COG KG): 1.7
- Log2 differential normalized TPM ratio compared to lactose (LBA0016 Fructokinase, COG KG): 0.5
- Transcripts per million (rpm) (LBA0016 Fructokinase, COG KG): 300.8 rpm
- Log2 differential normalized TPM ratio compared to glucose [1]: 0.4
- Log2 differential normalized TPM ratio compared to lactose [1]: 0
- Transcripts per million (rpm) [1]: 22.1 rpm
- Log2 differential normalized TPM ratio compared to glucose [2]: 1.3
- Log2 differential normalized TPM ratio compared to lactose [2]: -0.2
- Transcripts per million (rpm) [2]: 238.1 rpm
- Log2 differential normalized TPM ratio compared to glucose [3]: 1.4
- Log2 differential normalized TPM ratio compared to lactose [3]: −0.3
- Transcripts per million (rpm) [3]: 138.7 rpm
- Log2 differential normalized TPM ratio compared to glucose [4]: 1.8
- Log2 differential normalized TPM ratio compared to lactose [4]: −0.3
- Transcripts per million (rpm) [4]: 259 rpm
- Log2 differential normalized TPM ratio compared to glucose [5]: 1.5
- Log2 differential normalized TPM ratio compared to lactose [5]: −0.3
- Transcripts per million (rpm) [5]: 32.5 rpm
- Log2 differential normalized TPM ratio compared to glucose [6]: −1.1
- Log2 differential normalized TPM ratio compared to lactose [6]: −1.2
- Transcripts per million (rpm) [6]: 43.7 rpm
- Log2 differential normalized TPM ratio compared to glucose [7]: 0.8
- Log2 differential normalized TPM ratio compared to lactose [7]: 0.3
- Transcripts per million (rpm) [7]: 86.7 rpm
- Log2 differential normalized TPM ratio compared to glucose [8]: 1.1
- Log2 differential normalized TPM ratio compared to lactose [8]: 0.2
- Transcripts per million (rpm) [8]: 3596.1 rpm
- Log2 differential normalized TPM ratio compared to glucose [9]: 0.5
- Log2 differential normalized TPM ratio compared to lactose [9]: 1.2
- Transcripts per million (rpm) [9]: 70.4 rpm
- Log2 differential normalized TPM ratio compared to glucose [10]: 0.3
- Log2 differential normalized TPM ratio compared to lactose [10]: 0
- Transcripts per million (rpm) [10]: 8.1 rpm
- Log2 differential normalized TPM ratio compared to glucose [11]: 1.5
- Log2 differential normalized TPM ratio compared to lactose [11]: 0.2
- Transcripts per million (rpm) [11]: 160.2 rpm
- Log2 differential normalized TPM ratio compared to glucose [12]: 0.1
- Log2 differential normalized TPM ratio compared to lactose [12]: 2.5
- Transcripts per million (rpm) [12]: 2.8 rpm
- Log2 differential normalized TPM ratio compared to glucose [13]: 1.2
- Log2 differential normalized TPM ratio compared to lactose [13]: 0.2
- Transcripts per million (rpm) [13]: 301.8 rpm
- Log2 differential normalized TPM ratio compared to glucose [14]: −0.5
- Log2 differential normalized TPM ratio compared to lactose [14]: −0.8
- Transcripts per million (rpm) [14]: 108.6 rpm
- Log2 differential normalized TPM ratio compared to glucose [15]: 1.7
- Log2 differential normalized TPM ratio compared to lactose [15]: 0.7
- Transcripts per million (rpm) [15]: 654.9 rpm
- Log2 differential normalized TPM ratio compared to glucose [16]: 0.1
- Log2 differential normalized TPM ratio compared to lactose [16]: 0.3
- Transcripts per million (rpm) [16]: 114.4 rpm
- Log2 differential normalized TPM ratio compared to glucose [17]: 1.4
- Log2 differential normalized TPM ratio compared to lactose [17]: 0.3
- Transcripts per million (rpm) [17]: 5.9 rpm
- Log2 differential normalized TPM ratio compared to glucose [18]: 3.8
- Log2 differential normalized TPM ratio compared to lactose [18]: 0
- Transcripts per million (rpm) [18]: 37.6 rpm
- Log2 differential normalized TPM ratio compared to glucose [19]: 1.9
- Log2 differential normalized TPM ratio compared to lactose [19]: −3.7
- Transcripts per million (rpm) [19]: 55.9 rpm
- Log2 differential normalized TPM ratio compared to glucose [20]: 1.8
- Log2 differential normalized TPM ratio compared to lactose [20]: −3.8
- Transcripts per million (rpm) [20]: 48.4 rpm
- Log2 differential normalized TPM ratio compared to glucose (LBA1459 Galactokinase, COG G): 0.8
- Log2 differential normalized TPM ratio compared to lactose (LBA1459 Galactokinase, COG G): −3.9
- Transcripts per million (rpm) (LBA1459 Galactokinase, COG G): 42.2 rpm
- Log2 differential normalized TPM ratio compared to glucose [21]: −0.1
- Transcripts per million (rpm) [21]: 16.8 rpm
- Log2 differential normalized TPM ratio compared to glucose [22]: 0.1
- Log2 differential normalized TPM ratio compared to lactose [22]: −4.6
- Transcripts per million (rpm) [22]: 62.2 rpm
- Log2 differential normalized TPM ratio compared to glucose (LBA1464 Transposase, COG L): 0
- Log2 differential normalized TPM ratio compared to lactose (LBA1464 Transposase, COG L): −2.4
- Transcripts per million (rpm) (LBA1464 Transposase, COG L): 182.7 rpm
- Log2 differential normalized TPM ratio compared to glucose [23]: −0.1
- Log2 differential normalized TPM ratio compared to lactose [23]: −3.2
- Transcripts per million (rpm) [23]: 52.9 rpm
- Log2 differential normalized TPM ratio compared to glucose [24]: 1.5
- Log2 differential normalized TPM ratio compared to lactose [24]: −7.3
- Transcripts per million (rpm) [24]: 14.9 rpm
- Log2 differential normalized TPM ratio compared to glucose [25]: 1
- Log2 differential normalized TPM ratio compared to lactose [25]: −5.4
- Transcripts per million (rpm) [25]: 43.3 rpm
